Data on 1 molecule can be found in paper PMC7868322, “Rational Design of A Novel Small-Molecule HIV-1 Inactivator Targeting Both gp120 and gp41 of HIV-1” (Frontiers in Pharmacology, 2021).

Where two headings read alike, the source gives them in different places.

The subject of one data set is HIV-1 Bal. Put plainly: Inactivation of cell-free HIV-1 virions (PEG-6000 precipitation, p24 ELISA). To be noted: Human immunodeficiency virus 1, BAL; cell-free virions, 1 h at 4°C, PEG-6000 precipitation; read-out: EC50, inactivation of HIV-1 Bal. The format is cell-based. On the technique in general: ELISA stands for enzyme-linked immunosorbent assay.
A short description of another data set: Cytotoxicity (CCK-8). In kind it is cell-based. The following applies: human. The procedure: Cell viability was detected following the instructions in the protocol provided in the cell counting kit-8 (CCK-8; Dojindo Molecular Technologies, Gaithersburg, MD, USA) as previously described ([Yang et al., 2018]). Briefly, MT-2 cells and CEMx174 517 5.25 M7 cells (3 × 10^4/well) were incubated with compounds at different concentrations at 37°C for 48 h. Then, the supernatant was discarded, and CCK8 diluted 10 times with fresh medium was added (200 μL/well). After 2–6 h of incubation at 37°C, the absorbance at 450 nm was measured using a microplate reader (Tecan, Männedorf, Switzerland).

Another data set relates to 92/UG/001 (D, R5 and X4). Put plainly: Inhibition of HIV-1 clinical virus infection. In kind it is cell-based. To be noted: Human immunodeficiency virus 1; HIV-1 clinical virus 92/UG/001 (D, R5 and X4); means ± SD.
In data set [1] the test system is T2635-resistant virus K90E. In kind it is cell-based, HIV-1. The following applies: means ± SD.
In data set [2] the test system is T2635-resistant virus Q79E N126K. The format is cell-based, HIV-1. The following applies: means ± SD.
Data set [3] has as its system T2635-resistant virus H3C. The format is cell-based, HIV-1. To be noted: T2635-resistant virus H3C (A6V L33S Q66R N126K H132Q E136G); means ± SD.
In the next data set the test system is SM145/GS 016 (C, R5). Kind of data set: Inactivation of cell-free HIV-1 clinical virus. In kind it is cell-based. To be noted: Human immunodeficiency virus 1, inactivation of cell-free virions, means ± SD.
Data set [4] relates to T2635-resistant virus N113E. The format is cell-based, HIV-1. To be noted: inactivation of cell-free virions, means ± SD.
The target in a further data set is HIV-1 IIIB gp120 (Human immunodeficiency virus type 1 group M subtype B, UniProt P04578). Put plainly: ELISA inhibition of gp120 CD4bs-targeting mAbs binding to gp120. More on the design: polystyrene plates were coated with 50 µL of HIV-1 IIIB gp120. The protocol: Flow cytometry was used to detect compounds that competed with gp120 CD4bs-targeting mAbs for binding to gp120. In brief, 100 µL of FD016 at a concentration of 100 µM or PBS was first incubated with CHO-WT cells expressing HIV-1 HXB2 gp120 for 30 min at room temperature, and then gp120 CD4bs-targeting mAbs (5 μg/mL, 100 µL) and FITC-labeled goat anti-human secondary antibody were added successively. After three washes, the cells were analyzed with flow cytometry. ELISA was carried out to detect the activity of compounds that inhibit the binding of soluble CD4 (sCD4) or gp120 CD4bs-targeting mAbs to gp120 as previously described ([Si et al., 2004]; [Curreli et al., 2014]). Briefly, for sCD4 and gp120 binding, 50 µL of HIV-1 IIIB gp120 at 0.5 μg/mL was captured on polystyrene plate coated with sheep anti-gp120 antibody D7324 (Aalto Bio Reagents). sCD4 (ImmunoDiagnostics, Inc.) at 200 ng/mL was then added in the presence of an equal volume of different concentrations of compounds or PBS and incubated at 37°C for 1 h. Next, rabbit anti-sCD4 IgG (ImmunoDiagnostics, Inc.) at 250 ng/mL was added and incubated at 37°C for another 1 h, followed by goat anti-rabbit IgG-biotin (Invitrogen), streptavidin-horseradish peroxidase (Invitrogen). For gp120 CD4bs-targeting mAbs and gp120 binding, polystyrene plates were coated with 50 µL of HIV-1 IIIB gp120 (2 μg/mL in 0.1 mol/L sodium bicarbonate buffer (pH 8.6)) at 4°C overnight and then blocked with PBS containing 2% BSA at 37°C for 2 h. Next, gp120 CD4bs-targeting mAbs at 2 μg/mL were added in the presence of an equal volume of FD028 at different concentrations and incubated at 37°C for 1 h. Horseradish peroxidase (HRP)-labeled goat-anti-human IgG (Sigma-Aldrich) was added sequentially. After adding 3,3′,5,5′-tetramethylbenzidine chromogen substrate and sulfuric acid, the absorbance at 450 nm (A450) was recorded using a Microplate Reader (Tecan, Männedorf, Switzerland).

On to `CC1(C)CC(NC(=O)C(=O)Nc2ccc(Cl)c(F)c2)CC(C)(C)N1C(=O)COc1ccc(CCN2C(=O)/C(=C/c3ccc(-c4ccc(Cl)c(C(=O)O)c4)o3)SC2=S)cc1` [FD028, (Z)-2-Chloro-5-(5-((3-(4-(2-(4-(2-((4-Chloro-3-Fluorophenyl)amino)-2-oxoacetamido)-2,2,6,6-Tetramethylpiperidin-1-yl)-2-oxoethoxy)phenethyl)-4-oxo-2-Thioxothiazolidin-5-ylidene)methyl)furan-2-yl)benzoic Acid], for which the EC50 (commonly the concentration giving half of the maximal effect) in the data set with HIV-1 Bal worked out at 660 nM; with SM145/GS 016 (C, R5), 960 ± 90 nM; in [4] it was 1200 ± 160 nM. In addition, the CC50 (as a rule, the concentration giving 50% cytotoxicity) at 48 h was found to be 18200 nM in “Cytotoxicity (CCK-8)” (CEMx174 5.25 M7 cells, read-out: CC50, CEMx174 5.25 M7 cell) and 29500 nM in the data set “Cytotoxicity (CCK-8)” (MT-2 cells, read-out: CC50, MT-2 cell). The IC50 – broadly, the concentration needed to halve the response being measured – in the data set with 92/UG/001 (D, R5 and X4) came to 450 ± 120 nM; in data set [1], 790 ± 280 nM; in data set [2] it was 200 ± 70 nM; in data set [3], 270 ± 60 nM; on HIV-1 IIIB gp120 (ELISA, mAb 2G12, read-out: IC50, inhibition of 2G12 binding to gp120), 1420 nM; at HIV-1 IIIB gp120 (ELISA, mAb 654-30D, read-out: IC50, inhibition of 654-30D binding to gp120), 700 nM. In addition, the IC50 on HIV-1 IIIB gp120 (ELISA, mAb B12, read-out: IC50, inhibition of B12 binding to gp120) was 460 nM; at HIV-1 IIIB gp120 (ELISA, mAb HJ16, read-out: IC50, inhibition of HJ16 binding to gp120), 770 nM; at HIV-1 IIIB gp120 (ELISA, mAb N6, read-out: IC50, inhibition of N6 binding to gp120) it was 1230 nM; on HIV-1 IIIB gp120 (ELISA, mAb VRC01, read-out: IC50, inhibition of VRC01 binding to gp120), 420 nM; at HIV-1 IIIB gp120 (ELISA, range over the mAbs, read-out: IC50, inhibition of binding of gp120 to different gp120 CD4bs-targeting mAbs) it was 420 to 1420 nM; at HIV-1 IIIB gp120 (IC50, inhibition of 3BNC117 binding to gp120, ELISA, mAb 3BNC117), 520 nM.
